Source: patent US20060229355A1, “3.3'-Diindolylmethane compositions inhibit angiogenesis” (priority 2005, published 2006)

Key:
HUVECs [1] = assay: Cell proliferation assay (HUVEC cell counting); assay type: cell-based, human
Procedure: Antiangiogenic effects of the DIM analogs are pre-screened with vascular endothelial cells proliferation assays. […] Cells were then treated by 0, 2, 5, 10, or 25 μM DIM candidate at 24, 48, and 72 h. DIM was dissolved in DMSO as 1000× stock solutions for each treatment. Cell numbers were assessed at various time points by trypsinization and counting with a Coulter Z1 cell counter, as described below in Example I below. Cell proliferation assay. To determine endothelial cell proliferation, approximately 8×10^4 HUVECs were seeded in 6-well plates and allowed to grow for 24 h. Cells were then treated by 0, 2, 5, 10, or 25 μM DIM at 24, 48, and 72 h. DIM was dissolved in DMSO as 1000× stock solutions for each treatment. Cell numbers were assessed at various time points by trypsinization and counting with a Coulter Z1 cell counter. DIM inhibits proliferation, invasion, migration and tube formation of HUVECs. […] First, DIM's effect on proliferation of human vascular endothelial cell (HUVECs) was examined. HUVECs were treated with 0, 2, 5, 10, or 25 μM DIM for 24 to 72 h. DIM inhibited HUVECs proliferation in a concentration- and time-dependent manner, with up to 70% inhibition of proliferation at 72 h treatment with 25 μM DIM.

HUVECs [2] = assay: Cell invasion assay (Matrigel-coated transwell Boyden chamber); assay type: cell-based, human
Procedure: Cell invasion assay. Invasion assays were carried out using modified transwell Boyden chamber system. Chambers were assembled using 8 μm-pore BD Falcon transwell inserts as upper chambers, and the 12-well plates as lower chambers. Cell culture inserts were coated with 10 μl/insert Matrigel. Coated inserts were left to dry overnight in a laminar flow fume hood and then rehydrated with DMEM supplemented with 0.1% BSA for 1 h at 37° C. Rehydrated Matrigel wells were washed with the same medium. HUVECs were harvested by trypsin/EDTA and resuspended in 0.1% BSA/DMEM. Medium containing 5% FBS was applied to the lower chamber as chemoattractant, then cells were seeded at 1.5×10^5 cells/insert in the presence of 0, 5, 10 or 25 μM DIM and incubated for 2 h at 37° C. and 5% CO2. At the end of the incubation, the cells in the upper chamber were removed with cotton swabs and cells that traversed the Matrigel to the lower surface of the insert were fixed with 10% formalin/PBS and stained with crystal violet in 10% formalin/PBS. Cells that migrated to the lower surface of the insert were counted under the light microscope at a magnification of 40×. Each treatment was in triplicate. The quantification of the invasive cells in the presence of DIM was expressed as the percentage of the quantity of invasive cells under control conditions (DMSO). We next conducted a cell invasion assay to examine the effect of DIM on HUVEC movement through a simulated extracellular matrix. In a modified Boyden chamber assay, the transwell inserts were coated with a thin layer of Matrigel and inserted into wells containing 5% FBS medium as a chemoattractant. As a negative control, serum-free medium containing 0.1% BSA was used in the lower chamber wells. Cells which transversed the Matrigel and migrated to the lower part of the insert were photographed and quantified. […] In response to 5% FBS, however, HUVECs traversed the Matrigel and migrated to the lower chamber. The invasion of HUVECs was decreased by DIM in a concentration-dependent manner, in which DIM at 25 μM decreased cell invasion to 52% of the control.

HUVECs [3] = assay: Wound migration assay; assay type: cell-based; conditions: Homo sapiens, HUVEC; 25 μM DIM, 18 h incubation; read-out: number of cells migrating across the wound, % of control
Procedure: Wound migration assay. Migration was assessed using an in vitro wound assay. One hundred thousands cells were seeded into two 12-well cell culture plates and cultured in EGM-MV BulletKit to confluency. A scrape was made in the center of the cell monolayers with a sterile pipette tip to create a gap of constant width. Cellular debris was removed by gently washing with PBS. The initial images of the wounds were captured under phase contrast microscopy and the wounded monolayers were incubated further for 18 h in fresh EGM-MV BulletKit medium in the presence of DMSO or DIM of various concentrations (5, 10, or 25 μM). Pictures were taken with a Nikon Coolpix990 digital camera connected to the Nikon Eclipse TS 100 microscope at a 100× magnification. To quantify the migration, photographs of the initial wounded monolayers were compared with the corresponding images of cells at the end of the incubation. […] Cells that migrated across the lines were counted. All quantification were done on full-size images with the weight of artificial lines negligible compared to the size of the cell body. At least 5 fields from each triplicate treatment were counted. […] To quantify the migration, artificial lines fitting the cutting edges were drawn on pictures of the original wounded cells and overlaid on images of cells after incubation. Cells that migrated across the lines were counted. […]

HUVECs [4] = assay: Tube formation assay on Matrigel; assay type: cell-based, human; conditions: 24 h pre-treatment, 10 μM DIM, 3-h incubation
Procedure: Tube formation assay. Endothelial cells plated onto a gel of basement membrane protein rapidly organize into multicellular tube-like structures [12; 13]. Twelve-well cell culture plates coated with Matrigel were ordered from BD-Discovery Labware and assay was performed according to the manufacturer's instruction. Briefly, Matrigel-coated 12-well plates were allowed to solidify at 37° C. for 1 h. Endothelial cells pre-treated with 0, 10, or 25 μM DIM for 24 h were trypsinized and 6×10^4 cells were added per well in 1 mL medium. Cell viability was determined by trypan blue exclusion stain before seeding. DIM treatments continued for the rest of the assay. Tube formation was observed periodically over time under a phase contrast microscope, and representative pictures were taken at 3 h and 24 h. In a further assay of angiogenesis, we examined the effect of DIM on HUVEC tube formation in culture. Capillary formation on Matrigel is a process that requires cell-matrix interaction. For the assay, HUVECs were pre-treated without or with 10 or 25 μM of DIM for 24 h and then seeded on a thin layer of Matrigel. Capillary tube structure formation was obvious at 3 h of incubation and was almost completed at 24 h in the control medium.

HUVECs [5] = assay: Cell cycle analysis by flow cytometry; assay type: cell-based, human; conditions: 24 h
Procedure: DIM induces a G1 cell cycle arrest in HUVECs. To further characterize the antiproliferative activity of DIM in HUVECs, we examined the effects of this indole on cell cycle regulation. For the cell cycle studies, HUVECs treated with vehicle control or 25 μM DIM for 24 h were analyzed by flow cytometry as described above.

CDK2 = assay: Western blot of G1 cell cycle components in HUVECs: CDK2; assay type: cell-based, human; conditions: 25 μM DIM
Description: (§1) DIM down-regulates CDK2 and CDK6, and up-regulates CDK inhibitor p27^Kip1 in HUVECs. […] To examine this possibility, the expressions of G1 cell cycle components were investigated by Western blot analysis.

CDK6 = assay: Western blot of G1 cell cycle components in HUVECs: CDK6; assay type: cell-based, human; conditions: 25 μM DIM
Description: as §1

p27^Kip1 = assay: Western blot of G1 cell cycle components in HUVECs: p27Kip1; assay type: cell-based, human; conditions: 25 μM DIM
Description: as §1

CDK4 = assay: Western blot of G1 cell cycle components in HUVECs: CDK4; assay type: cell-based, human; conditions: DIM treatment
Description: as §1

cyclin E = assay: Western blot of G1 cell cycle components in HUVECs: cyclin E; assay type: cell-based, human; conditions: DIM treatment
Description: as §1

p21^Waf1/CiP1 = assay: Western blot of G1 cell cycle components in HUVECs: p21Waf1/Cip1; assay type: cell-based, human; conditions: DIM treatment
Description: as §1

[6] = system: neovascularization of Matrigel plugs; assay: Matrigel plug angiogenesis assay (hemoglobin content); assay type: in vivo, C57BL/6 mice; conditions: 5 mg/kg s.c., from five days before Matrigel inoculation and 2 more weeks
Procedure: Matrigel plug angiogenesis assay. In vivo angiogenesis assays were performed on female C57BL/6 mice as described before. Mice were acclimated to semi-purified phytoestrogen-free AIN-76 ad libitum for 7 days prior to the study and randomly grouped (5/group). DMSO vehicle or DIM at 5 mg/kg was injected s.c. five days before Matrigel inoculation. Heparin (64 Unit/mL) and aFGF (100 ng/mL) were gently mixed with cold liquid Matrigel at 4° C. The Matrigel solution (0.3 ml) was injected into mice s.c. in the bilateral flanks. Animals were treated with DMSO control or DIM for 2 more weeks and terminated by CO2 inhalation. The gels were surgically removed and vascularization of Matrigel plugs was quantified by measuring hemoglobin content using Drabkin Reagent kit 525. DIM reduces in vivo angiogenesis. Using a rodent Matrigel plug angiogenesis assay, we next investigated whether DIM affects neovascularization in vivo. Matrigel is a urea extract of Engelbreth-Holm-Swarm (EHS) tumor, which contains laminin, collagen IV, heparan sulfate proteoglycan, and several growth factors, all of which are present in the authentic basement membrane of solid tumors. When injected subcutaneously into rodents, Matrigel forms a solid “plug” beneath the skin. The hemoglobin content in the Matrigel parallels blood vessels development in the gel, thereby allowing quantitation. […]

[7] = system: MCF-7 human breast cancer cells; assay: MCF-7 human breast carcinoma xenograft in athymic mice; assay type: in vivo, athymic (nu/nu) mice; conditions: 5 mg/kg s.c. five times weekly
Procedure: (§2) II. Antiangiogenic DIM inhibits human breast carcinoma in xenograft model. Twenty female athymic (nu/nu) mice were acclimated to semi-purified phytoestrogen-free AIN-76 ad libitum for 7 days prior to the study. They were implanted with a 60-d release 0.72 mg estradiol pellet in the subscapular region. Mice were then inoculated s.c. in the bilateral flanks with 0.1 mL Matrigel containing 3×10^6 MCF-7 human breast cancer cells and randomly grouped (10/group) to receive s.c. injections of either 5 mg/kg DIM or DMSO in a PBS vehicle, five times weekly. Feed intake, body weight were measured weekly and palpable tumor diameter were measured twice per week. Tumor volumes were calculated as: (π/6)×[length(mm)×width^2(mm)] [15]. The experiment was terminated at 34 days. All animals were killed by CO2 asphyxiation.
(§3) DIM inhibits the growth of transplanted MCF-7 human breast carcinoma cells. Since we observed an inhibition of in vivo angiogenesis by DIM in the Matrigel plug assay, we determined whether DIM could inhibit the growth of transplanted breast carcinoma cells in female athymic (nu/nu) mice. Mice were injected s.c. with MCF-7 human breast cancer cells in the bilateral flanks. Mice were randomly assigned (10 mice/group) to receive s.c. injection of either DIM at 5 mg/kg dose or vehicle control DMSO in PBS, five times weekly. Feed intake, body weight and palpable tumor diameter were measured twice per week. Feed intake (22.2±1.3 g/wk vs. 22.9±1.0 g/wk) and body weight gain (2.3±0.2 g vs. 2.4±0.2 g) were not altered by DIM administration. […] Tumor volumes were calculated as: (π/6)×[length(mm)×width^2(mm^2)].

[8] = Toxicity observations in MCF-7 xenograft study (feed intake, body weight, organ weights); assay type: in vivo, athymic (nu/nu) mice; conditions: 5 mg/kg s.c. five times weekly
Procedure: as §2, §3

For `c1ccc2c(Cc3c[nH]c4ccccc34)c[nH]c2c1` [DIM, 3,3′-Diindolylmethane], the “inhibition of proliferation (in words)” value (HUVECs [1]; 5 μM DIM, 72 h) was “Significant inhibition of proliferation”, the inhibition at 25 µM (HUVECs [1]; Homo sapiens, HUVEC, 25 μM DIM, 72 h treatment) was at most 70% and the “cell survival and viability (trypan blue exclusion)” value (HUVECs [1]; conditions of the proliferation assay, 0-25 μM, 24-72 h) was “not obviously affected”. For the same molecule, the “cell invasion (in words)” value (HUVECs [2]; 5 μM DIM) was “trend of decreased cell invasion”, the “cell invasion (in words)” value (HUVECs [2]; 10 μM DIM) was “more significant effect” and the “cell invasion, % of the control” value (HUVECs [2]; 25 μM DIM, 5% FBS chemoattractant, 2 h) was 52%. For the same molecule, the activity at 25 µM (HUVECs [3]) was 40%, the “capillary tube structure formation (in words)” value (HUVECs [4]) was “decreased ability to extend and differentiate into tube-like structures” and the “cell population in G1 phase (in words)” value (HUVECs [5]; 5 μM DIM, asynchronous growing cells) was “increased the cell population in G1 phase”. For the same molecule, the “proportion of S phase cells” value (HUVECs [5]; 25 μM DIM, vehicle control 15.2±1.3) was 2.4±0.9%, the “proportion of cells in the G1 phase” value (HUVECs [5]; 25 μM DIM, vehicle control 71.8±2.5%) was 85.7±2.9% and the “CDK2 expression, % of the control” value (CDK2) was 35%. The “CDK6 expression, % of the control” value (CDK6) was 40%, the “p27Kip1 expression, fold of the control” value (p27^Kip1) was about 3.5 fold and the “level of CDK4” value (CDK4) was “not significantly affected”. For the same molecule, the “level of cyclin E” value (cyclin E) was “not significantly affected”, the “level of p21Waf1/Cip1” value (p21^Waf1/CiP1) was “not significantly affected” and the “reduction of neovascularization compared to controls (hemoglobin content)” value [6] was “up to 76%”. For the same molecule, the “reduction of tumor growth” value ([7]; after 3 weeks (P=0.22)) was 40%, the “final average tumor volume” value ([7]; day 34, control 3121±554.5 mm^3) was 1125±434 mm^3 and the “reduction of tumor growth” value ([7]; termination at day 34 (P<0.05)) was 64%. The body weight gain [8] was “not altered”, the feed intake [8] was “not altered” and the relative organ weights [8] was “not significantly affected”.
